From BindingDB's records for doi:10.1002/cbic.201600267 (Fairfield University, 2016)

Each compound was assayed against Beta-galactosidase (Escherichia coli (strain K12), UniProt P00722) (assay: beta-Galactosidase Assay). Conditions: 30 °C.
Chain of Beta-galactosidase (P00722 whole entry): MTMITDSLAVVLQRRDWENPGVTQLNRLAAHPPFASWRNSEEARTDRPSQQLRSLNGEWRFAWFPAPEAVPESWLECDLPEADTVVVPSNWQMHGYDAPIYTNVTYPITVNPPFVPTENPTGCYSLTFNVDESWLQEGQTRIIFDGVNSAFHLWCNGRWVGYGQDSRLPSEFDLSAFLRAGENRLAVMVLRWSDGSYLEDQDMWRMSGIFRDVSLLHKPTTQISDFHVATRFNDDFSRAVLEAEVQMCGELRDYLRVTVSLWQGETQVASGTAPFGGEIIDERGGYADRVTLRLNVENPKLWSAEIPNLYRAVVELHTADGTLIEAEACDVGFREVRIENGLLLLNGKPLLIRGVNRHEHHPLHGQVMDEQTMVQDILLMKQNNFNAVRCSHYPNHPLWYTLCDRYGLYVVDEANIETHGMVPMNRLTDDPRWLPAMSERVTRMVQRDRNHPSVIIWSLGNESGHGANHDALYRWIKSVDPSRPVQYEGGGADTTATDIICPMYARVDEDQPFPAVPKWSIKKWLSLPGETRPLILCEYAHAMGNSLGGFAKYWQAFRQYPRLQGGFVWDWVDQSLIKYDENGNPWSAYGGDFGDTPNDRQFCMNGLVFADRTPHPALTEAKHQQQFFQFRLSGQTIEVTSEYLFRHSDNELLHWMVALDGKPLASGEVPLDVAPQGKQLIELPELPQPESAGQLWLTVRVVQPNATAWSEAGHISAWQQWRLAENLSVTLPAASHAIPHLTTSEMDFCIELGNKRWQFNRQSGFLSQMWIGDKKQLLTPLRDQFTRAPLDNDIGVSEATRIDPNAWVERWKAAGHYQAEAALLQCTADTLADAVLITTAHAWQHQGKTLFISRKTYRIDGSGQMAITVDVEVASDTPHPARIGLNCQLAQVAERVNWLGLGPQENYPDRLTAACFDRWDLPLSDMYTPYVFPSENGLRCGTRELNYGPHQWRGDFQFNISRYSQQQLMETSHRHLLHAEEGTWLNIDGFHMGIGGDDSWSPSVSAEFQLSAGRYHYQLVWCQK
Protocol: Enzymatic activity of beta-galactosidase from Escherichia coli (1.2 x 10^-10 M) was measured using the colorimetric substrate ortho-nitrophenyl-b-galactoside ([ONPG]: 2500, 2000, 1500, 1000, 500, 250, 125 uM) in Z-Buffer (100 mM sodium phosphate at pH = 7, 10 mM KCl, 1 mM MgSO4) to which was added fresh 50 mM beta-mercaptoethanol at 30 °C. In a 96-well plate were combined a 5x stock solution of Z-buffer (containing 250 mM beta-mercaptoethanol) and 5x stock solutions of ONPG. Samples were adjusted to a final volume of 180 uL with water. Samples were equilibrated at 30 °C for 5 minutes on a Synergy H1 microplate reader. A 10x stock solution of enzyme (20 uL) was then injected into each well and the production of 2-nitrophenol was quantified at 410 nm over a period of 10 minutes.
For `O=C(NCCOCCOCCOCCNC(=O)c1ccc(C(=O)OCCOCCS[C@@H]2O[C@H](CO)[C@H](O)[C@H](O)[C@H]2O)c(C(c2ccccc2)c2ccccc2)c1)c1ccc(C(=O)c2ccccc2)cc1` [β-gal inhibitor, 14], the Ki was 3.9 µM. Compound `O=C(NCCOCCOCCOCCNC(=O)c1ccc(C(=O)OCCS[C@@H]2O[C@H](CO)[C@H](O)[C@H](O)[C@H]2O)c(C(c2ccccc2)c2ccccc2)c1)c1ccc(C(=O)c2ccccc2)cc1` [β-gal inhibitor, 13] has a Ki of 3 µM. In the case of `CC(C)S[C@@H]1O[C@H](CO)[C@H](O)[C@H](O)[C@H]1O` [IPTG], the Ki is reported as 76 µM. With `O=C(NCCOCCOCCOCCNC(=O)c1ccc(C(=O)OCCOCCOCCOCCS[C@@H]2O[C@H](CO)[C@H](O)[C@H](O)[C@H]2O)c(C(c2ccccc2)c2ccccc2)c1)c1ccc(C(=O)c2ccccc2)cc1` [β-gal inhibitor, 15] the Ki was 5.9 µM.
